Assay results from BindingDB's records for patent US20240208953 (Novartis, 2024).

Molecular target: Potassium voltage-gated channel subfamily H member 2 (Homo sapiens, UniProt Q12809)
Experiment: hERG Qpatch Assay
Method: hERG currents were recorded using the Qpatch automated patch clamp systems (Sophion Bioscience Inc., North Brunswick, NJ) in the whole (single) cell configuration. hERG expressing CHO-K1 cells were harvested with Detachin (Genlantis) and stored in the modified serum-free SFM-2 media (Life Technologies) at room temperature. The extracellular solution contained (in mM) NaCl (145), KCl (4), MgCl2 (1), CaCl2 (2), and HEPES (10), pH 7.4, with NaOH. The intracellular solution contained KCl (135), MgCl2 (1.75), CaCl2 (5.4), EGTA (10), K2-ATP (4), and HEPES (10), pH 7.2, with KOH. After whole cell configuration was achieved, the cell was held at +-90 mV, and a 0.1 s pulse to +-50 mV was delivered to measure the leaking current, which was subtracted from the tail current online. Then the cell was depolarized to +20 mV for 4 s (prepulse), followed by a 4 s test pulse to +-50 mV to reveal the hERG tail current. To monitor changes in the current amplitude, this voltage protocol was repeatedly applied every 20 s. Test compounds were first diluted in DMSO for six dose-response experiments and then dissolved in the extracellular solution using Freedom EVO liquid handling robotic system (Tecan, M nnedorf, Switzerland). The final DMSO concentration in samples was 0.3% v/v. Amitriptyline (Sigma) was tested as a positive control.

Chain of Potassium voltage-gated channel subfamily H member 2 (Q12809 whole entry): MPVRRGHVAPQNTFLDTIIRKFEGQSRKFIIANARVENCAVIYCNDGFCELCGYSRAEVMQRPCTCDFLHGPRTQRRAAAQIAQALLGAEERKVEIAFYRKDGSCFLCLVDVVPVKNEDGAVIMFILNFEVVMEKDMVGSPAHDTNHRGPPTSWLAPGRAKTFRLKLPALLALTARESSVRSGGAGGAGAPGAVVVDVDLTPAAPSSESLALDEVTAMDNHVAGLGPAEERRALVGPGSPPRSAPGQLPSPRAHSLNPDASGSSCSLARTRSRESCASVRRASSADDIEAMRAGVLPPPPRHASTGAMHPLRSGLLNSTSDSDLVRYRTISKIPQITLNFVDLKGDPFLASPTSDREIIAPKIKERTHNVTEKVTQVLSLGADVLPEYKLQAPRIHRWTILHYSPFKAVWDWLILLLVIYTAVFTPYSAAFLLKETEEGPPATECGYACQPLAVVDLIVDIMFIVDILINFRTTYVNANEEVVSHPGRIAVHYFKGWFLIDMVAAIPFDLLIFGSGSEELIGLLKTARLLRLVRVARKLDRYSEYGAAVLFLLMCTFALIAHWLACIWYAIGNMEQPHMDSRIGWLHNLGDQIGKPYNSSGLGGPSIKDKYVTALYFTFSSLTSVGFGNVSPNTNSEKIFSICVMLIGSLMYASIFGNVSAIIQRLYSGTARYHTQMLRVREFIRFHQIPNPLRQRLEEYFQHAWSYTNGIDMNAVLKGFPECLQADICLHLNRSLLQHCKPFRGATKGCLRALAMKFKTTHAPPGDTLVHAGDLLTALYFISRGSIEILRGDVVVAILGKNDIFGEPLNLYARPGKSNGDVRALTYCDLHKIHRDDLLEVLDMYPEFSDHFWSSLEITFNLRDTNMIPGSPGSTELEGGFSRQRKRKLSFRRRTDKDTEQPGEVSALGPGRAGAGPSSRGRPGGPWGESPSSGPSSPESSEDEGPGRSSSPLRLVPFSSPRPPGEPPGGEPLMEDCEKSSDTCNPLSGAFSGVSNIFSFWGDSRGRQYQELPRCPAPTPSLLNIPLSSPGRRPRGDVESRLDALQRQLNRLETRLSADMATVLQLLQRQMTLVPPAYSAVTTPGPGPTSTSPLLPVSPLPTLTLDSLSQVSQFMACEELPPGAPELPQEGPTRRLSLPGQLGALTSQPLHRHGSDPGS

Structure (SMILES) | IC50 [µM]
O=C1CCc2cc([C@H](O)CN3C[C@H]4C[C@H](Oc5ccccc5F)C[C@@]4(O)C3)cc(F)c2N1 [US20240208953, Example 29B] | 12.5
O=C1Nc2c(F)cc([C@@H](O)CN3C[C@H]4C[C@H](Oc5ccccc5)C[C@@]4(O)C3)cc2CO1 [US20240208953, Example 28A] | 2.4
